Tests used:
HEK293Tmtkeima cells = test: Functional test of mitophagy inducer (mtKeima imaging, with or without CCCP-induced mitochondrial damage); assay type: cell-based, Human; details: for Ability to selectively induce autophagy in damaged mitochondria (FIG. 2): 5 uM or 10 uM CCCP versus no CCCP treatment; for The ability of selection to induce autophagy in damaged mitochondria: HEK293Tmtkeima cells, 5 uM or 10 uM CCCP to induce mitochondrial damage, number of cells in which damaged mitophagy occurs/number of all cells
Experimental: Group 1: Human embryonic kidney transformed cells HEK293Tmtkeima cells were treated with 0 μM, 1.25 μM, 2.5 μM, 5 μM and 10 μM CCCP respectively, and seeded in a 96-well black ELISA PLATE at 1.5*10^5 cells/ml, 100 μL per well. Compound I-2 was added after 25 hours, and 3 replicates were set. At 37° C., under 5% CO2 incubation conditions, photographs were taken every few hours with biotek cytation 5 for a total of 20 hours, with the bright field as the focusing channel, and 9 images were taken per hole, and the images were processed using the instrument software.
Group 2: Human embryonic kidney transformed cells HEK293Tmtkeima cells were seeded in a 96-well black ELISA PLATE at […], 100 μL per well; compounds I-1˜I-44 and UMI-77 were added after 25 hours, set up 3 replicates; under 37° C., 5% CO2 culture conditions, use biotek every few hours Cytation 5 was used to take photos, a total of 20 hours of shooting. In another group of cells under the same conditions, human embryonic kidney-transformed cells HEK293Tmtkeima cells were seeded in a 96-well black enzyme plate at 1.5*10^5 cells/ml, 100 μl per well; after 24 hours, 5 uM or 10 uM CCCP (Carbonyl cyanide) was first added 3-chlorophenylhydrazone) to induce mitochondrial damage, then add I-1˜I-44, UMI-77 1 hour later, set up 3 repetitions; under 37° C., 5% CO2 culture conditions, pictures were taken every few hours with biotek cytation 5, photographs were taken for 20 hours. Another group of human embryonic kidney transformed cells HEK293Tmtkeima cells was seeded at 1.5*10^5 cells/ml in 96-well black ELISA PLATE at 100 μl per well under the same conditions, 24 hours later 5 uM or 10 uM CCCP (Carbonyl cyanide 3-chlorophenylhydrazone) was first added to induce mitochondrial damage, after 1 hour then add I-1 to I-44, UMI-77 and set up 3 replicates. At 37° C., under 5% CO2 incubation conditions, pictures were taken every few hours with biotek cytation 5, photographs were taken for 20 hours, with the bright field as the focusing channel for both groups, and 9 images were taken per hole, and the images were processed using the instrument software.

[1] = In vitro plasma stability test; assay type: in vitro ADME; details: 37° C.
Experimental: Procaine was selected as the reference compound. The specific method is as follows:
Incubated in a water bath at 37° C. for 0, 5, 15 and 30 minutes and 1, 2, 4, 6, 10, 24 and 48 hours. Take 200 μL and add 3 times the volume of chromatography grade acetonitrile to precipitate the protein. Vortex shaking for 5 minutes, centrifuge, take 200 μL of the supernatant, HPLC injection and analysis. The liquid phase conditions are the same as before.

[2] = Mouse pharmacokinetics (PK) test; assay type: in vivo, ICR mice; details: for AUC(0-inf) / bioavailability / half-life / Cmax / clearance / Vd: ICR, plasma; for bioavailability: read-out: Bioavailability F; for half-life: read-out: Half-life t 1/2 (converted); for Cmax: read-out: Peak blood concentration C max; for clearance: read-out: Eliminate Cl; for Vd: read-out: Steady state apparent volume of distribution Vss
Experimental: (§1) Take experimental mice and apply an appropriate amount of the test compound to them according to the dosage and administration route shown in the figure. Three experimental mice were selected for three parallel experiments for each compound and each administration method. Numbers 101, 102 and 103 were in the same group, 201, 202 and 203 were in one group, and 301, 302 and 303 were in one group.
(§2) At the corresponding time point, take 10 μL of rat plasma sample into a centrifuge tube, add 100 μL of methanol:acetonitrile (1:1, v/v), perform […] for 1 min, centrifuged (14000 rpm) for 5 min, and take 50 μL of the supernatant, mixed with water in equal volumes, mixed uniformly by […] and then analyzed.
(§3) Note: The mice used in the PK experiment are ICR mice of SPF, purchased from Sino-British SIPPR Lab Animal Ltd, Shanghai, China. The rats used in the PK experiments were SD rats of SPF, purchased from Sino-British SIPPR Lab Animal Ltd, Shanghai, China.

[3] = Rat pharmacokinetics (PK) test; assay type: in vivo, SD rats; details: for bioavailability: read-out: Bioavailability F; for half-life: read-out: Half-life t 1/2 (converted); for Cmax: read-out: Peak blood concentration C max
Experimental: as §1, §2, §3

[4] = In vitro liver microsome stability test; assay type: in vitro ADME; details: in vitro mouse or human liver microsomes
Experimental: Ketanserin was selected as the reference compound. The specific method is as follows:
Prepare 0.1MK3PO4 (pH 7.4) buffer and 3×NADPH stock solution (6 mM, 5 mg/mL), and preheat in a 37° C. water bath; configure the test compound and control compound spiking solution: 5 μL compound stock solution ([…]) was added to 95 μL acetonitrile; Configuration of 1.5 μM spiking solution in microsomes (0.75 mg/mL): 1.5 μL of spiking solution and 18.75 μL of liver microparticles solution (20 mg/mL) were added to 479.75 μL of K3PO4 buffer; add 30 μL spiking solution in microsomes to the multi-well plate, and incubated at 37° C. for 5 minutes; add 15 μL NADPH stock solution to each well to start the reaction, and timing; the reaction was terminated by adding 150 μL of acetonitrile solution containing IS at 0 min, 5 min, 15 min, 30 min and 45 min, respectively; shake for 10 min and then centrifuge at 6000 rpm for 15 min; take 80 μL of the supernatant from each well for LC/MS detection and calculate T1/2.
Note: The mouse and human liver microsomes used in the experiments were purchased from Xenotech.

[5] = IP intraperitoneal injection, 3 mg/kg
[6] = IV intravenous injection, 1 mg/kg
[7] = SD, plasma, IP intraperitoneal injection (3 mg/kg)
[8] = SD, plasma, IV intravenous injection (1 mg/kg)
[9] = SD, plasma, PO oral gavage (10 mg/kg)

Row | Compound | Ability to selectively induce autophagy in damaged mitochondria (FIG. 2) (HEK293Tmtkeima cells) | The ability of selection to induce autophagy in damaged mitochondria (HEK293Tmtkeima cells) | Plasma stability (half-life, FIG. 4) [1] | PK properties in the mouse PK experiment (in words) [2] | AUC(0-inf) [2, 6] | clearance [2, 6] | Cmax [2, 6] | Vd [2, 6] | AUC(0-inf) ([2]; PO oral gavage, 10 mg/kg) | bioavailability ([2]; PO oral gavage, 10 mg/kg) | Cmax ([2]; PO oral gavage, 10 mg/kg) | Liver microsomal stability (elimination half-life T 1/2, FIG. 3) [4] | further results
1 | O=C(O)C[S+]([O-])c1cc(NS(=O)(=O)c2ccc(Br)cc2)c2ccccc2c1O (stereo not drawn) [Compound I-1] | more likely to induce autophagy in damaged mitochondria | +++ (strong ability to selectively induce autophagy in damaged mitochondria (number of cells in which damaged mitophagy occurs/number of all cells >0.30)) | superior plasma stability | good PK properties | 714 ng·h/mL | 24.9 mL/min/kg | 832 ng/mL | 2.3 L/kg | 3800 ng·h/mL | 60.4% | 1350 ng/mL | superior liver microsomal stability | AUC(0-inf) [2, 5]: 4420 ng·h/mL; bioavailability [2, 5]: 247%; half-life [2, 5]: 0.79 h; Cmax [2, 5]: 3740 ng/mL; half-life [2, 6]: 1.25 h; half-life ([2]; PO oral gavage, 10 mg/kg): 1.96 h; PK properties in the rat PK experiment (in words) [3]: good PK properties; AUC(0-inf) [3, 7]: 18300 ng·h/mL; bioavailability [3, 7]: 165%; half-life [3, 7]: 3.34 h; Cmax [3, 7]: 5440 ng/mL; AUC(0-inf) [3, 8]: 3720 ng·h/mL; clearance ([3]; SD, plasma, IV intravenous injection (1 mg/kg), read-out: Eliminate Cl): 4.91 mL/min/kg; half-life [3, 8]: 1.93 h; Cmax [3, 8]: 1900 ng/mL; Vd ([3]; SD, plasma, IV intravenous injection (1 mg/kg), read-out: Steady state apparent volume of distribution V ss): 0.63 L/kg; AUC(0-inf) [3, 9]: 6070 ng·h/mL; bioavailability [3, 9]: 16.3%; half-life [3, 9]: 0.96 h; Cmax [3, 9]: 1550 ng/mL
2 | CN(c1cc([S+]([O-])CC(=O)O)c(O)c2ccccc12)S(=O)(=O)c1ccc(Br)cc1 (stereo not drawn) [Compound I-2] | more likely to induce autophagy in damaged mitochondria | ++ (moderate ability to selectively induce autophagy in damaged mitochondria (number of cells in which damaged mitophagy occurs/number of all cells in the range of 0.2 to 0.3)) | superior plasma stability | good PK properties | 429 ng·h/mL | 39.3 mL/min/kg | 947 ng/mL | 1.39 L/kg | 1050 ng·h/mL | 24.1% | 495 ng/mL | superior liver microsomal stability | Induction of mitophagy in cells with undamaged mitochondria (FIG. 1) (HEK293Tmtkeima cells; cells treated with 0 μM CCCP): unable to induce autophagy in non-damaged mitochondria; Induction of mitophagy in cells with mitochondrial damage (FIG. 1) (HEK293Tmtkeima cells; cells with CCCP (10 μM) versus without CCCP): selectively induces autophagy in damaged mitochondria; half-life [2, 6]: 0.98 h; half-life ([2]; PO oral gavage, 10 mg/kg): 1.37 h
3 | O=C(O)C[S+]([O-])c1cc(NS(=O)(=O)c2ccc(Br)cc2)c2cc(Br)ccc2c1O (stereo not drawn) [Compound I-29] | – | +++ (strong ability to selectively induce autophagy in damaged mitochondria (number of cells in which damaged mitophagy occurs/number of all cells >0.30)) | – | – | – | – | – | – | – | – | – | – | –
4 | N#Cc1ccc2c(O)c([S+]([O-])CC(=O)O)cc(NS(=O)(=O)c3ccc(Br)cc3)c2c1 (stereo not drawn) [Compound I-31] | – | + (weak ability to selectively induce autophagy in damaged mitochondria (number of cells in which damaged mitophagy occurs/number of all cells in the range of 0.1 to 0.2)) | – | – | – | – | – | – | – | – | – | – | –
5 | COP(=O)(Nc1cc([S+]([O-])CC(=O)O)c(O)c2ccccc12)c1ccc(Br)cc1 (stereo not drawn) [Compound I-33] | – | ++ (moderate ability to selectively induce autophagy in damaged mitochondria (number of cells in which damaged mitophagy occurs/number of all cells in the range of 0.2 to 0.3)) | – | – | – | – | – | – | – | – | – | – | –
6 | O=C(O)C[S+]([O-])c1cc(NC(=O)c2cccc(Br)c2)c2ccccc2c1O (stereo not drawn) [Compound I-35-1] | – | + (weak ability to selectively induce autophagy in damaged mitochondria (number of cells in which damaged mitophagy occurs/number of all cells in the range of 0.1 to 0.2)) | – | – | – | – | – | – | – | – | – | – | –
7 | Cn1cc(S(=O)(=O)Nc2cc([S+]([O-])CC(=O)CO)c(O)c3ccccc23)cn1 (stereo not drawn) [Compound I-36] | – | ++ (moderate ability to selectively induce autophagy in damaged mitochondria (number of cells in which damaged mitophagy occurs/number of all cells in the range of 0.2 to 0.3)) | – | – | – | – | – | – | – | – | – | – | –
8 | Cc1noc(C)c1S(=O)(=O)Nc1cc([S+]([O-])CC(=O)O)c(O)c2ccccc12 (stereo not drawn) [Compound I-37] | – | ++ (moderate ability to selectively induce autophagy in damaged mitochondria (number of cells in which damaged mitophagy occurs/number of all cells in the range of 0.2 to 0.3)) | – | – | – | – | – | – | – | – | – | – | –
9 | O=C(O)CS(=O)(=O)c1cc(NS(=O)(=O)c2ccc(Br)cc2)c2ccccc2c1O [Compound I-42] | – | + (weak ability to selectively induce autophagy in damaged mitochondria (number of cells in which damaged mitophagy occurs/number of all cells in the range of 0.1 to 0.2)) | – | – | – | – | – | – | – | – | – | – | –
10 | O=C(O)CSc1cc(NS(=O)(=O)c2ccc(Br)cc2)c2ccccc2c1O [UMI-77, reference compound] | unable to selectively induce autophagy in damaged mitochondria | – | unstable in the plasma environment and will be rapidly eliminated | rapidly cleared | 140 ng·h/mL | 131 mL/min/kg | 314 ng/mL | 18.4 L/kg | 162 ng·h/mL | 8.64% | 102 ng/mL | unstable in the liver microsomal environment and will be rapidly eliminated | –

Source: patent publication US12151999B2, “Small molecule compounds having naphthylamine structure and application thereof” (Hangzhou PhecdaMed Co., Ltd., priority 2021, dated 2024)
